From US8785418B2, “Lyophilization cakes of proteasome inhibitors” (Cephalon, Inc., priority 2009, dated 2014)

Legend:
[1] = Stability of Compound 1 drug substance; format: physicochemical
Excerpt: Piva, R. R., et al., Blood, 1 Mar. 2008, vol 111, No. 5, p 2765-2775. […] Id.
Compound 1 is currently undergoing clinical trials.

angiogenesis = details: in vitro; cited from earlier work
[2] = tested on: RANKL-induced osteoclastoenesis; details: in vitro; cited from earlier work
[3] = tested on: normal human epithelial cells, bone marrow progenitors, and bone marrow-derived stromal cells; details: cited from earlier work
[4] = Hydrolysis of Compound 10 in aqueous solution; format: physicochemical
Method: Mannitol (39.2 mg) and Kleptose® HP (hydroxypropyl-β-cyclodextrin; 49 mg) are dissolved in sterile water for injection (599 mg) at room temperature. Compound 10 (1.167 mg) is dispersed in tert-butanol (312 mg) by magnetic stirring protected from light at room temperature during 10 minutes. A few mL of the Mannitol/Kleptose® solution is poured into the Compound 10 dispersion in order to solubilize the Compound 10. After forming a solution, the remaining Mannitol/Kleptose® solution is added. The solution is stirred for a few minutes while protected from light. In Formulation 7, the pH is adjusted with phosphoric acid (2M) down to pH 4.0±0.2. In Formulation 8, the pH is about 8 and is not adjusted. The pre-lyophilization solution is filtered through a sterile disposable PVDF filter of 0.22 μm (Stericup Millipore®) to form a clear solution. 4 mL of the filtered pre-lyophilization solution is transferred into a 10 mL bottle and then freeze-dried.
Analysis of the pre-lyophilization solutions for Formulations 7 and 8 were performed at T0 and after 48 hours storage at 25° C. Compound 1 was analyzed because Compound 10 is known to convert to Compound 1 in aqueous solution.

CC(C)C[C@H](NC(=O)[C@@H](NC(=O)c1cccc(-c2ccccc2)n1)[C@@H](C)O)B(O)O [Compound 1, [(1R)-1-[[(2S,3R)-3-Hydroxy-2-[[(6-phenylpyridin-2-yl)carbonyl]amino]-1-oxobutyl]amino]-3-methylbutyl]boronic acid]
Stability of the compound ([1]; exposure to air and/or light, some batches degrade at temperatures as low as 5° C.): unstable and subject to degradation upon exposure to air and/or light
Stability in solution ([1]; solution): unstable in solution
Anti-angiogenic activity (angiogenesis): strong anti-angiogenic activity
RANKL-induced osteoclastoenesis [2]: represses
Cytotoxicity profile [3]: favorable cytotoxicity profile

6-(2S,3R)-N-[(1R)-1-(1,3,6,2-dioxazaborocan-2-yl)-3-methylbutyl}-3-hydroxy-2-{(6-phenylpyridin-2-yl)formamido]butanamide [Compound 10]
Hydrolysis in aqueous solution ([4]; aqueous solution, converts to Compound 1): readily hydrolyzed
Compound 10 remaining in obtained lyophilized cake ([4]; lyophilized cake of Formulations 7 and 8 (4 mL fill)): < 0.01 mg
